# Measurements: patent US20230276804A1, “A PESTICIDALLY ACTIVE MIXTURE COMPRISING PYRAZOLOPYRIDINE ANTHRANILAMIDE COMPOUND, OXIDES OR SALTS THEREOF” (priority 2020, published 2023)
# “And” between values parts separate entries of the source, which are not always exact repeats. Equal entries are not always repeated.
# Key:
# Type in all cases: in vivo
# [1] = system: Erysiphe cichoracearum; test: Preventive glasshouse test against Erysiphe cichoracearum in cucumber (Example K); settings: single compound
# Experimental: The single compounds or the respective compound combinations were dissolved in 2% dimethyl sulfoxide/acetone and then mixed with water containing emulsifier to a calibrated spray volume of 50 mL. The test solutions were poured into spray bottles for further applications.
# (§1) To test the preventive activity of compounds, healthy young cucumber plants, raised in the greenhouse, were sprayed with the active compound preparation at the stated application rates inside the spray cabinets using hollow cone nozzles. One day after treatment, the plants were inoculated with a conidial suspension containing 2×10^5 Erysiphe cichoracearum inoculum. The inoculated plants were then kept in a greenhouse chamber at a temperature of 22-24° C. and 50-60% relative humidity for disease expression.
# A visual assessment of the performance of the compounds and the respective compound combinations was carried out by rating the disease severity (0-100% scale) on treated plants 3, 7, 10 and 15 days after application. Efficacy (% control) of the single compounds or compound combinations was calculated by comparing the disease rating in the treatment with the one of the untreated control. The compounds were also assessed for their plant compatibility by recording symptoms like necrosis, chlorosis and stunting. The results have been described for the compound of formula (I-III) in Table K.
# [2] = system: Helicoverpa armigera; test: Leaf dip method (tomato leaves) with Bacillus thuringiensis against Helicoverpa armigera (Example D); settings: single, 0.1 ppm, 72 h
# Experimental: (§2) The leaf dip method was used, wherein the required quantity of the compounds were weighed and dissolved in a test solution prepared in tubes. The tubes were put on a vortex at 2000 rpm for 90 min for proper mixing and then, for the single compounds, diluted with a 0.01% Triton-X solution, for the combinations, diluted with a 0.01% Triton-X solution containing formulated Bt, to get the desired test concentrations. Tomato leaves were dipped in the solution for 10 seconds, shade dried for 20 min and then transferred to single cells of the bioassay trays. A single third instar larva was released into each cell and the tray was covered with a lid. The bio-assay trays were kept under laboratory conditions at a temperature of 25° C. and relative humidity of 70%. Observations on dead, moribund and live larvae were recorded at 72 h after the release. Percent mortality was calculated by combining dead and moribund larvae and comparing the result to the one of the untreated control. The results have been described for compound of formula (I-III) in Table D.
# [3] = system: Phakopsora pachyrhizi; test: Preventive glasshouse test against Phakopsora pachyrhizi in soybean (Example H); settings: single compound
# Experimental: The single compounds or the respective compound combinations were dissolved in 2% dimethyl sulfoxide/acetone and then mixed with water containing an emulsifier to a calibrated spray volume of 50 ml. The test solutions were poured into spray bottles for further applications.
# as §1, with “Soybean” for “cucumber”, “a” for “a conidial”, “Phakopsora pachyrhizi conidia.” for “Erysiphe cichoracearum inoculum.”, “80-90%” for “50-60%”
# A visual assessment of the performance of the single compounds and respective compound combinations was carried out by rating the disease severity (0-100% scale) on treated plants 3, 7, 10 and 15 days after application. Efficacy (% control) of the compounds was calculated by comparing the disease rating in the treatment with the one of the untreated control. The compounds were also assessed for their plant compatibility by recording symptoms like necrosis, chlorosis and stunting. The results have been described for the compound of formula (I-III) in Table H.
# [4] = system: Spodoptera litura; test: Leaf dip method (tomato leaves) with Bacillus thuringiensis against Spodoptera litura (Example E); settings: single, 0.1 ppm, 72 h
# Experimental: as §2, with “test concentration.” for “test concentrations.”, “the results” for “the result”, “Table E.” for “Table D.”
# [5] = system: Pyricularia oryzae; settings: single compound, 100 ppm, preventive, rice
# [6] = system: Septoria nodorum; test: Preventive glasshouse test against Parastagonospora nodorum/Septoria nodorum/Stagnospora nodorum in wheat (Example J); settings: single compound
# Experimental: The single compounds or respective compound combinations were dissolved in 2% dimethyl sulfoxide/acetone and then mixed with water containing emulsifier to a calibrated spray volume of 50 mL. The test solutions were poured into spray bottles for further applications.
# To test the preventive activity of compounds, healthy young wheat plants, raised in the greenhouse, were sprayed with the active compound preparation at the stated application rates inside the spray cabinets using hollow cone nozzles. One day after treatment, the plants were inoculated with a spore suspension containing 2.8×10^6 Stagnospora nodorum inoculum.
# The inoculated plants were then kept in a greenhouse chamber at 22-25° C. temperature and 90-100% relative humidity for disease expression.
# A visual assessment of the performance of the single compounds or compound combinations was carried out by rating the disease severity (0-100% scale) on treated plants 3, 7, 10 and 15 days after application. Efficacy (% control) of the single compounds and mixtures was calculated by comparing the disease rating in the treatment with the one of the untreated control. The compounds were also assessed for their plant compatibility by recording symptoms like necrosis, chlorosis and stunting. The results have been described for the compound of formula (I-III) in Table J.
# [7] = system: Helicoverpa armigera; test: Diet incorporation method against Helicoverpa armigera (Example A); settings: single compound, 0.2 ppm, 96 h
# Experimental: The diet incorporation method was used, in which semi-synthetic diet was incorporated into the test solutions consisting either of the single compounds or respective compound combinations, when the temperature was approximately 50° C. in the bio-assay containers, then stirred thoroughly for proper mixing and allowed to cool for 30 min. The solidified diet was cut into equal pieces, and then each piece was transferred into one cell of a bio-assay tray. A single starved third instar larva was released into each of these cells of the bio-assay trays and the tray was covered with a lid. The bio-assay trays were kept under laboratory conditions at a temperature of 25° C. and relative humidity of 70%. Observations on dead, moribund and live larvae were recorded 96 h after the release of the larvae. Percent mortality was calculated by combining dead and moribund larvae and comparing the result to the one of the untreated control. The results are shown for the compound of formula (I-III) in Table A.
substance,measurement,setting,value
"6-(3-bromo-1-(3-chloropyridin-2-yl)-1H-pyrazole-5-carboxamido)-N-isopropyl-5-methylpyrazolo[1,5-a]pyridine-7-carboxamide [Compound (I-III)]",Observed Efficacy (%),[1]; Conc. 100 ppm,17%
same,Observed Efficacy (%),[1]; Conc. 500 ppm,17% and 19% and 28%
same,Observed Efficacy (%),[2],12.5%
same,Observed Efficacy (%),[3]; 100 ppm,25%
same,Observed Efficacy (%),[3]; 500 ppm,56%
same,Observed Efficacy (%),[4],0%
same,Observed Efficacy (%),[5],15%
same,Observed Efficacy (%),[6]; 100 ppm,24%
same,Observed Efficacy (%),[6]; 500 ppm,32%
same,Observed Efficacy (%),[7],12.5%
